Laboratory results reported in patent US9657351B2, “MRNA-based gene expression for personalizing patient cancer therapy with an MDM2 antagonist” (Hoffmann-La Roche Inc., priority 2013, dated 2017).

How the values were obtained:
Test in all cases: COMPOUND A In Vitro Assay
Assay type in all cases: cell-based
8305C = details: Homo sapiens, Thyroid gland, TP53 Mutant
Procedure, shortened: (§1)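 An IC50 per line came from high-throughput treatment with RG7112 across a multi-tumour human cancer cell panel.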

A-673 = details: Homo sapiens, A673, Muscle, TP53 Mutant
Procedure, shortened: as §1

BT-483 = details: Homo sapiens, Breast, mammary gland, TP53 Mutant
Procedure, shortened: as §1

DMS 114 = details: Homo sapiens, Lung, TP53 Mutant
Procedure, shortened: as §1

Daoy = details: Homo sapiens, Brain, cerebellum, TP53 Mutant
Procedure, shortened: as §1

HCC1143 = details: Homo sapiens, Breast, mammary gland, TP53 Mutant
Procedure, shortened: as §1

HCC1599 = details: Homo sapiens, Breast, mammary gland, TP53 Mutant
Procedure, shortened: as §1

HCC827 = details: Homo sapiens, Lung, TP53 Mutant
Procedure, shortened: as §1

KARPAS-299 = details: Homo sapiens, Blood, TP53 Mutant
Procedure, shortened: as §1

KELLY = details: Homo sapiens, Brain, TP53 Mutant
Procedure, shortened: as §1

KG-1 = details: Homo sapiens, Bone marrow, TP53 Mutant
Procedure, shortened: as §1

L-363 = details: Homo sapiens, Lymphocyte, peripheral blood, TP53 Mutant
Procedure, shortened: as §1

LS 174T = details: Homo sapiens, LS174T
Procedure, shortened: as §1

LS513 = details: Homo sapiens
Procedure, shortened: as §1

ME-180 = details: Homo sapiens, Cervix, TP53 Wild type
Procedure, shortened: as §1

NCI-H1395 = details: Homo sapiens, Lung, TP53 Wild type
Procedure, shortened: as §1

NCI-H1792 = details: Homo sapiens, Lung, TP53 Mutant
Procedure, shortened: as §1

NCI-H1793 = details: Homo sapiens, Lung, TP53 Mutant
Procedure, shortened: as §1

NCI-H1975 = details: Homo sapiens, Lung, TP53 Mutant
Procedure, shortened: as §1

NCI-H23 = details: Homo sapiens, Lung, TP53 NA
Procedure, shortened: as §1

NCI-H250 = details: Homo sapiens, Lung, TP53 NA
Procedure, shortened: as §1

NCI-H28 = details: Homo sapiens
Procedure, shortened: as §1

NCI-H460 = details: Homo sapiens
Procedure, shortened: as §1

NCI-H661 = details: Homo sapiens, Lung, TP53 Mutant
Procedure, shortened: as §1

NIH:OVCAR-3 = details: Homo sapiens, Ovary, TP53 Mutant
Procedure, shortened: as §1

PA-1 = details: Homo sapiens
Procedure, shortened: as §1

PLC/PRF/5 = details: Homo sapiens, Liver, TP53 Mutant
Procedure, shortened: as §1

RPMI-8226 = details: Homo sapiens, Lymphocyte B, peripheral blood, TP53 Mutant
Procedure, shortened: as §1

SCC-15 = details: Homo sapiens, Tongue, TP53 Mutant
Procedure, shortened: as §1

SU•86•86 = details: Homo sapiens, SU.86.86, Pancreas, TP53 Mutant
Procedure, shortened: as §1

SW620 = details: Homo sapiens, SW-620, Intestine, large, colon, TP53 Mutant
Procedure, shortened: as §1

SW837 = details: Homo sapiens, Intestine, large, rectum, TP53 Mutant
Procedure, shortened: as §1

VCaP = details: Homo sapiens, Prostate, TP53 Mutant
Procedure, shortened: as §1

YAPC = details: Homo sapiens, Pancreas, TP53 Mutant
Procedure, shortened: as §1

ZR-75-1 = details: Homo sapiens
Procedure, shortened: as §1

CCOc1cc(C(C)(C)C)ccc1C1=N[C@@](C)(c2ccc(Cl)cc2)[C@@](C)(c2ccc(Cl)cc2)N1C(=O)N1CCN(CCCS(C)(=O)=O)CC1 [COMPOUND A]
IC50 (8305C): 24 µM
IC50 (A-673): 18 µM
IC50 (BT-483): 20 µM
IC50 (DMS 114): 10 µM
IC50 (Daoy): 9.7 µM
IC50 (HCC1143): 12 µM
IC50 (HCC1599): 12 µM
IC50 (HCC827): 8.9 µM
IC50 (KARPAS-299): 19 µM
IC50 (KELLY): 15 µM
IC50 (KG-1): 15 µM
IC50 (L-363): 32 µM
IC50 (LS 174T; LS 174T cells): 600 nM
IC50 (LS 174T; LS 174T, Intestine, large, colon, TP53 Wild type): 590 nM
IC50 (LS513; LS-513, LS513, Intestine, large, caecum, TP53 Wild type): 490 nM
IC50 (LS513; LS-513, LS513 cells): 500 nM
IC50 (ME-180): 9.3 µM
IC50 (NCI-H1395): 1300 nM
IC50 (NCI-H1792): 7 µM
IC50 (NCI-H1793): 10 µM
IC50 (NCI-H1975): 16 µM
IC50 (NCI-H23): 10 µM
IC50 (NCI-H250): 12 µM
IC50 (NCI-H28; NCI-H28, NCI-H28, Mesothelioma, TP53 Wild type): 460 nM
IC50 (NCI-H28; NCI-H28, NCI-H28 cells): 500 nM
IC50 (NCI-H460; NCI-H460, NCI-H460, Lung, TP53 Wild type): 880 nM
IC50 (NCI-H460; NCI-H460, NCI-H460 cells): 900 nM
IC50 (NCI-H661): 11 µM
IC50 (NIH:OVCAR-3): 17 µM
IC50 (PA-1; PA-1, PA-1, Ovary, TP53 Wild type): 620 nM
IC50 (PA-1; PA-1, PA-1 cells): 600 nM
IC50 (PLC/PRF/5): 7 µM
IC50 (RPMI-8226): 6.6 µM
IC50 (SCC-15): 20 µM
IC50 (SU•86•86): 6.7 µM
IC50 (SW620): 9.8 µM
IC50 (SW837): 12 µM
IC50 (VCaP): 13 µM
IC50 (YAPC): 18 µM
IC50 (ZR-75-1; ZR-75-1, ZR-75-1, Breast, mammary gland, TP53 Wild type): 76 nM
IC50 (ZR-75-1; ZR-75-1, ZR-75-1 cells): 100 nM
